Consider 3 molecules from publication PMC9274090, “Molecular Modeling of ABHD5 Structure and Ligand Recognition” (Frontiers in Molecular Biosciences, 2022).

For this assay, the target named is T1, Alpha/beta hydrolase domain-containing 5 (ABHD5, CGI-58) (Mus musculus, UniProt Q9DBL9).
T1 construct: ABHD5 fused to C-terminal fragment of G. princeps luciferase
T1 sequence (Q9DBL9 1-351): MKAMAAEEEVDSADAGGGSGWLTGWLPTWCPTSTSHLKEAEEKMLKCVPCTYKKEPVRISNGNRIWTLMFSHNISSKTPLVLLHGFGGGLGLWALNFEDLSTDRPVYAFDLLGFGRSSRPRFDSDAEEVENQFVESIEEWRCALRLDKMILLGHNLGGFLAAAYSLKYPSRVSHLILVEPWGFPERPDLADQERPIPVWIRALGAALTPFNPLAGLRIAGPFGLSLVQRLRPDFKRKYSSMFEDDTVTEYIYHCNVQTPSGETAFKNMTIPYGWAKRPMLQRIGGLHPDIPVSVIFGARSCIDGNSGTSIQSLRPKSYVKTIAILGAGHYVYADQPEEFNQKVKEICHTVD
T1 sequence (Q8BVZ1 1-463 partner): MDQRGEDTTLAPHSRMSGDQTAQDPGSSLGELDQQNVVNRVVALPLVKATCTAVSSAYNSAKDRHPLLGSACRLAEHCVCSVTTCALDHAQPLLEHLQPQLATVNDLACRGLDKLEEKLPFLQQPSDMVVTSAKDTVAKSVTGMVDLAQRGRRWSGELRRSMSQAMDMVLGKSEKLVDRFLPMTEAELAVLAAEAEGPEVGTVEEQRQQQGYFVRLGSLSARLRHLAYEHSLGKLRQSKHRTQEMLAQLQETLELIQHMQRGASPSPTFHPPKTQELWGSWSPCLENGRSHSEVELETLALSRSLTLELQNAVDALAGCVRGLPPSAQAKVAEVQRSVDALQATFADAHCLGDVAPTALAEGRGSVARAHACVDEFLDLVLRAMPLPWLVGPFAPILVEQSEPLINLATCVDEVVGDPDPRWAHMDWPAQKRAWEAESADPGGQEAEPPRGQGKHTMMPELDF
The assay is described as follows: split luciferase complementation in cell lysates: ligand-induced dissociation of ABHD5-PLIN5. The format is biochemical.

Each structure is given as a SMILES string. Read-outs that look alike come from different tables or passages of the source.

What is called IC50 is the concentration at which inhibition is half-maximal. `O=C(Cc1cccc(F)c1)N1CCN(S(=O)(=O)c2ccc3c(c2)OCCO3)CC1` [SR3133, SR-03000003133]: where the note is “read-out: IC50”, the IC50 was found to be 15.9 µM.
Still for that read-out and setting: the figure for `COc1ccc(CC(=O)N2CCN(S(=O)(=O)c3ccc4c(c3)OCCCO4)CC2)cc1` [SR3134, SR-03000003134] is 8.9 µM.
Turning to `Cc1ccc2c(CC(=O)N3CCN(S(=O)(=O)c4ccc5c(c4)OCCO5)CC3)coc2c1` [SR4559, SR-01000604559], 3.44 µM corresponded to half-maximal inhibition (IC50).
